Inconclusive results and toxic doses are left out. The calls were made as follows: active = survival T/C of 150% or more; inactive = T/C below 125% in these data.
Tested on: BDF1 mice, P388 leukemia ip, median survival T/C
Assay: NCI In Vivo Anticancer Drug Screen. Data for tumor model P388 Leukemia (intraperitoneal) in B6D2F1 (BDF1) mice
Settings: endpoint: median survival time, higher = longer survival
Procedure, shortened: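 Antitumour effect was judged in vivo: survival in drug-treated mice, normalised to that of vehicle-dosed controls, gives the reported T/C.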

[1] = dose: 50.0 mg/kg/injection, schedule: Q01DX009 (ip), vehicle: saline with Tween-80
[2] = dose: 100.0 mg/kg/injection, schedule: Q01DX009 (ip), vehicle: saline with Tween-80
[3] = dose: 200.0 mg/kg/injection, schedule: Q01DX009 (ip), vehicle: saline with Tween-80
[4] = dose: 100.0 mg/kg/injection, schedule: Q04DX003 (ip), vehicle: Klucel (hydroxypropylcellulose) (HPC)
[5] = dose: 200.0 mg/kg/injection, schedule: Q01DX001 (ip), vehicle: Klucel (hydroxypropylcellulose) (HPC)
[6] = dose: 200.0 mg/kg/injection, schedule: Q04DX003 (ip), vehicle: Klucel (hydroxypropylcellulose) (HPC)
[7] = dose: 400.0 mg/kg/injection, schedule: Q04DX003 (ip), vehicle: Klucel (hydroxypropylcellulose) (HPC)
[8] = dose: 100.0 mg/kg/injection, schedule: Q01DX009 (ip), vehicle: saline
[9] = dose: 100.0 mg/kg/injection, schedule: Q04DX003 (ip), vehicle: saline
[10] = dose: 200.0 mg/kg/injection, schedule: Q01DX009 (ip), vehicle: saline
[11] = dose: 200.0 mg/kg/injection, schedule: Q04DX003 (ip), vehicle: saline
[12] = dose: 400.0 mg/kg/injection, schedule: Q01DX009 (ip), vehicle: saline
[13] = dose: 400.0 mg/kg/injection, schedule: Q04DX003 (ip), vehicle: saline
[14] = dose: 100.0 mg/kg/injection, schedule: Q04DX003 (ip), vehicle: saline with Tween-80
[15] = dose: 200.0 mg/kg/injection, schedule: Q04DX003 (ip), vehicle: saline with Tween-80
[16] = dose: 400.0 mg/kg/injection, schedule: Q04DX003 (ip), vehicle: saline with Tween-80
[17] = dose: 50.0 mg/kg/injection, schedule: Q04DX003 (ip), vehicle: saline with Tween-80

Measured: T/C

CC12CCC(O)CC1CCC1C2CCC2(C)C(C3=CC(=O)OC3)CCC12O (centres undefined)
inactive: dose: 2.0 mg/kg/injection, schedule: Q01DX009 (ip), vehicle: Klucel (hydroxypropylcellulose) (HPC) 90 % of control | dose: 2.0 mg/kg/injection, schedule: Q01DX010 (ip), vehicle: carboxymethylcellulose (CMC) 95 % of control | dose: 4.0 mg/kg/injection, schedule: Q01DX009 (ip), vehicle: Klucel (hydroxypropylcellulose) (HPC) 105 % of control | dose: 8.0 mg/kg/injection, schedule: Q01DX009 (ip), vehicle: Klucel (hydroxypropylcellulose) (HPC) 112 % of control | dose: 8.0 mg/kg/injection, schedule: Q01DX010 (ip), vehicle: carboxymethylcellulose (CMC) 104 % of control

C=C(C)C(=O)NCCC(=O)Oc1ccc([N+](=O)[O-])cc1
inactive: [1] 95 % of control | [2] 87 % of control | [3] 86 % of control

C[S+](C)N(c1ccc(Cl)cc1)C(C)(C)C
inactive: dose: 25.0 mg/kg/injection, schedule: Q01DX001 (ip), vehicle: saline 104 % of control | dose: 50.0 mg/kg/injection, schedule: Q01DX001 (ip), vehicle: saline 111 % of control

COC(OC)c1[nH]c(=S)[nH]c(=O)c1Cc1cccc(Cl)c1
inactive: dose: 100.0 mg/kg/injection, schedule: Q01DX001 (ip), vehicle: Klucel (hydroxypropylcellulose) (HPC) 109 % of control | dose: 100.0 mg/kg/injection, schedule: Q01DX009 (ip), vehicle: Klucel (hydroxypropylcellulose) (HPC) 122 % of control | [4] 113 % of control | [5] 104 % of control | [6] 100 % of control | dose: 400.0 mg/kg/injection, schedule: Q01DX001 (ip), vehicle: Klucel (hydroxypropylcellulose) (HPC) 104 % of control | dose: 400.0 mg/kg/injection, schedule: Q01DX009 (ip), vehicle: Klucel (hydroxypropylcellulose) (HPC) 100 % of control | [7] 95 % of control

CC(C)(C)OC(=O)NNC(=O)C(CSC(c1ccccc1)c1ccccc1)N1C(=O)c2ccccc2C1=O (centres undefined)
inactive: [4] 95 % of control | [6] 100 % of control | [7] 90 % of control

Oc1ccc2ccccc2c1Cc1c(O)ccc2ccccc12
inactive: dose: 50.0 mg/kg/injection, schedule: Q04DX003 (ip), vehicle: other 95 % of control | dose: 100.0 mg/kg/injection, schedule: Q04DX003 (ip), vehicle: other 95 % of control | dose: 200.0 mg/kg/injection, schedule: Q04DX003 (ip), vehicle: other 104 % of control

CC1=CCCC1
inactive: [8] 118 % of control | [9] 113 % of control | [10] 118 % of control | [11] 104 % of control | [12] 118 % of control | [13] 104 % of control

Cc1ccc(O)cc1Cl
inactive: [8] 96 % of control | [10] 104 % of control | [12] 104 % of control

COC(=O)[C@H]1[C@H]2C[C@@H]3c4[nH]c5cc(OC)ccc5c4CCN3C[C@H]2C[C@@H](OC(=O)c2cc(OC)c(OC)c(OC)c2)[C@@H]1OC
inactive: dose: 0.37 mg/kg/injection, schedule: Q01DX009 (ip), vehicle: saline with Tween-80 95 % of control

CN(C)CC/C=C1\c2ccccc2Sc2ccc(Cl)cc21
inactive: dose: 3.75 mg/kg/injection, schedule: Q01DX001 (ip), vehicle: Klucel (hydroxypropylcellulose) (HPC) 112 % of control | dose: 7.5 mg/kg/injection, schedule: Q01DX001 (ip), vehicle: Klucel (hydroxypropylcellulose) (HPC) 110 % of control | dose: 15.0 mg/kg/injection, schedule: Q01DX001 (ip), vehicle: Klucel (hydroxypropylcellulose) (HPC) 112 % of control | dose: 30.0 mg/kg/injection, schedule: Q01DX001 (ip), vehicle: Klucel (hydroxypropylcellulose) (HPC) 103 % of control | dose: 60.0 mg/kg/injection, schedule: Q01DX001 (ip), vehicle: Klucel (hydroxypropylcellulose) (HPC) 114 % of control | dose: 120.0 mg/kg/injection, schedule: Q01DX001 (ip), vehicle: Klucel (hydroxypropylcellulose) (HPC) 118 % of control

CC1(C)CC2(CC(C)(C)c3cc(O)c(O)cc32)c2cc(O)c(O)cc21
inactive: dose: 100.0 mg/kg/injection, schedule: Q04DX003 (ip), vehicle: saline sonified 109 % of control | dose: 200.0 mg/kg/injection, schedule: Q04DX003 (ip), vehicle: saline sonified 104 % of control | dose: 400.0 mg/kg/injection, schedule: Q04DX003 (ip), vehicle: saline sonified 100 % of control

Nc1nc(N)c2nc(SC34CC5CC(CC(C5)C3)C4)c(N)nc2n1
inactive: [14] 97 % of control | [15] 88 % of control | [16] 94 % of control

CC1=C2C(=O)c3ccccc3C2=C(C)S(=O)(=O)O1
inactive: dose: 50.0 mg/kg/injection, schedule: Q01DX009 (ip), vehicle: carboxymethylcellulose (CMC) 119 % of control | dose: 100.0 mg/kg/injection, schedule: Q01DX009 (ip), vehicle: carboxymethylcellulose (CMC) 90 % of control | [14] 122 % of control

O=C1c2ccccc2C(=O)c2c(O)c(NCCCN3CCOCC3)cc(O)c21
inactive: dose: 50.0 mg/kg/injection, schedule: Q01DX005 (ip), vehicle: saline with Tween-80 99 % of control | dose: 100.0 mg/kg/injection, schedule: Q01DX005 (ip), vehicle: saline with Tween-80 94 % of control | dose: 200.0 mg/kg/injection, schedule: Q01DX005 (ip), vehicle: saline with Tween-80 94 % of control

CCCCCCCOc1cccc(OCCCC[N+]2(CC)CCCCC2)c1
inactive: dose: 6.25 mg/kg/injection, schedule: Q01DX009 (ip), vehicle: saline 110 % of control

CCOCCN1C=C/C(=C/C=C/c2cc[n+](CCOCC)c3ccccc23)c2ccccc21
inactive: dose: 0.22 mg/kg/injection, schedule: Q01DX009 (ip), vehicle: Klucel (hydroxypropylcellulose) (HPC) 100 % of control | dose: 0.45 mg/kg/injection, schedule: Q01DX009 (ip), vehicle: Klucel (hydroxypropylcellulose) (HPC) 100 % of control | dose: 0.9 mg/kg/injection, schedule: Q01DX009 (ip), vehicle: Klucel (hydroxypropylcellulose) (HPC) 105 % of control

CCCCCCCCCCCCCCCC(=O)OCCCCCCCCCCCCC
inactive: dose: 25.0 mg/kg/injection, schedule: Q04DX003 (ip), vehicle: saline with Tween-80 100 % of control | [17] 100 % of control | [14] 105 % of control

COC(=O)C(NC=O)C(=O)OC
inactive: [8] 100 % of control | [9] 100 % of control | [10] 114 % of control | [11] 90 % of control | [12] 100 % of control | [13] 90 % of control

OCC1(O)CCC1
inactive: dose: 75.0 mg/kg/injection, schedule: Q01DX009 (ip), vehicle: saline 95 % of control | [9] 96 % of control | dose: 150.0 mg/kg/injection, schedule: Q01DX009 (ip), vehicle: saline 104 % of control | [11] 103 % of control | dose: 300.0 mg/kg/injection, schedule: Q01DX009 (ip), vehicle: saline 109 % of control | [13] 100 % of control

O.O.O=C(CC(=O)C(F)(F)F)C(F)(F)F.O=C(CC(=O)C(F)(F)F)C(F)(F)F.[Ni]
inactive: [5] 104 % of control

C=CC(=O)[O][Pb]([CH3])([CH3])[CH3]
inactive: dose: 0.75 mg/kg/injection, schedule: Q01DX009 (ip), vehicle: saline 98 % of control | dose: 1.5 mg/kg/injection, schedule: Q01DX009 (ip), vehicle: saline 96 % of control

N#CCC(NC(=O)OCc1ccccc1)C(=O)OCc1ccccc1 (centres undefined)
inactive: dose: 25.0 mg/kg/injection, schedule: Q01DX009 (ip), vehicle: saline with Tween-80 100 % of control | [1] 94 % of control | [17] 96 % of control | [2] 88 % of control | [14] 105 % of control | [3] 96 % of control | [15] 94 % of control | dose: 400.0 mg/kg/injection, schedule: Q01DX009 (ip), vehicle: saline with Tween-80 96 % of control | [16] 105 % of control

FC(F)(F)c1cccc(C=Nc2ccc(Oc3ccccc3)cc2)c1
inactive: dose: 50.0 mg/kg/injection, schedule: Q01DX009 (ip), vehicle: saline + alcohol 97 % of control | dose: 100.0 mg/kg/injection, schedule: Q01DX009 (ip), vehicle: saline + alcohol 91 % of control | dose: 200.0 mg/kg/injection, schedule: Q01DX009 (ip), vehicle: saline + alcohol 100 % of control

CSc1ccccc1C(C)(C)O
inactive: dose: 50.0 mg/kg/injection, schedule: Q01DX009 (ip), vehicle: other 100 % of control | dose: 100.0 mg/kg/injection, schedule: Q01DX009 (ip), vehicle: other 104 % of control | dose: 200.0 mg/kg/injection, schedule: Q01DX009 (ip), vehicle: other 113 % of control

From PubChem BioAssay AID328 (DTP/NCI, 2004)
